According to publication PMC10761119, “Phosphorylation-state dependent intraneuronal sorting of Aβ differentially impairs autophagy and the endo-lysosomal system” (Autophagy, 2023):

Key:
SH-SY5Y cells = experiment: Lysosomal acidification assay using LysoSensor-dextran; format: cell-based, human; conditions: Aβ 1 µM, within 24 h of incubation; ΔpH = pHfinal (t = 24 h) − pHinitial (control, t = 0 h); n = 12, N = 4
Description: Cells were cultured on coverslips and treated with Aβ variants (primary cortical neurons, DIV14–500 nM, 4 h; SH-SY5Y cells, D3–1 μM, 24 h) in presence of 50 µM LysoSensor-dextran probe (ThermoFisher Scientific, L7545) in cell culture media for the indicated time points. Cells were washed and stained as described before. For fluorescence analyses, cells were cultured and treated in a 96-well plate for the indicated time points, and washed thrice with PBS to remove the excess probe. Fluorescence intensity analysis of blue and green channel was done using a multiplate reader (Tecan Life Sciences, Switzerland). […] was computed from the fluorescence values measured at λEx 340 nm and λEm 450 nm (blue channel) and λEm 535 nm (green channel), respectively. Values were normalized to absorbance at 340 nm and protein content per well, and represented as change of LysoSensor acidification with respect to control cells (Figure 7B and S7C-D). pH values were computed by preparing a standard curve, wherein cells treated with 1 µM nigericin (Sigma Aldrich, N7143) and 1 µM monensin (Sigma Aldrich, M5273) were incubated with media of pH 4.5, 7.5 and 9.2. As independent controls, 100 nM bafilomycin A1 (Sigma Aldrich, 553210), 1 mM NH4Cl- and 10 µM rapamycin (Cayman Chemicals, 19438)-treated cells were also used as independent controls to validate the measurements. Change in LysoSensor pH (ΔpH) for Aβ treated cells was quantified using the formula ΔpH = pHfinal (control/Aβ, t = 24 h) − pHinitial (control, t = 0 h). Box plots (Figure 7C and S7E) depict the overall distribution of data, and each data point represents average values from an independent experiment; n = 12, N = 4.

primary cortical neurons = experiment: Subcellular fractionation by differential centrifugation and Aβ ELISA; format: cell-based, mouse; conditions: Aβ 500 nM, 4 h; for Aβ levels in the isolated membrane fraction (16,100 g pellet): ELISA 82E1, n = 6, N = 3
Description: [Worded in the source for another cell line; used here, by the source, with some conditions changed.] SH-SY5Y cells seeded on D1, were treated with Aβ variants (1 μM) on D3 in DMEM/F-12 media without serum and antibiotics. Control treatment included treatment with equal volume of 10 mM NaOH solution used for preparing the Aβ stock solutions, in respective cell culture medium. SH-SY5Y cells, after 16 h of transient expression of the reporter constructs, were treated with different Aβ variants, autophagy modulator substrates and respective controls in DMEM/F-12, FCS^− PS^− media for the mentioned time points. After treatment, cells were washed twice with PBS and with 0.025% trypsin-EDTA in PBS to get rid of cell bound Aβ, followed by subsequent washings with PBS again. Cells were either collected by scraping using a cell-scraper or fixed with 4% PFA-PBS for 15 min at RT, for further immunocytochemistry experiments. Collected treatment media was centrifuged at 1000 g for 5 min, pellet discarded and supernatant frozen at −20°C until further usage.
Cells were collected by scraping and mechanically homogenized in hypotonic D buffer (10 mM Tris-HCl, pH 7.4, 10 mM NaCl, 0.1 mM EGTA, 25 mM glycerol 2-phosphate, 1 mM DTT) containing protease and phosphatase inhibitors by repeated suspension through a 23 G × 1” needle. Post-nuclear supernatant (PNS) was collected by centrifugation of the mechanically homogenized cellular material at 2,000 g for 5 min. The pellet was the nuclear material. […] The nuclear fraction was the supernatant collected after centrifugation at 16,100 g for 15 min. The PNS collected from the first step was centrifuged at 16,100 g for 60 min, and supernatant was used as the crude cytosolic fraction. The pellet contained the membrane materials, which were re-homogenized in hypotonic D buffer and again centrifuged at 16,100 g for 60 min. The supernatant was discarded, pellet was resuspended in STEN-lysis buffer (20 mM Tris-HCl, pH 7.5, 150 mM NaCl, 1 mM EDTA, 1 mM EGTA, 1% Triton X-100, 2.5 mM sodium pyrophosphate [Sigma Aldrich, P1835], 1 mM β-glycerophosphate [Sigma Aldrich, G9422]) containing protease and phosphatase inhibitors, and the membrane fraction was the supernatant collected after centrifugation at 16,100 g for 15 min. The crude cytosolic fraction was then further fractionated at 100,000 g for 70 min at 4°C under vacuum. The resultant supernatant was the soluble cytosolic fraction. The pellet was resuspended in STEN lysis buffer and centrifuged at 16,100 g for 15 min. The resultant supernanant represented the insoluble cytosolic fraction.
Wells were further tapped dry and incubated with 4G8-biotin/82E1-biotin detection antibodies (0.05–0.1 μg/well) at RT for 2 h followed by subsequent washing and incubation with streptavidin conjugated HRP complex (1:5000) for another 2 h. Wells were then washed thoroughly four times and filled with 100 µl of 3,3,5,5-tetramethylbenzidine substrate (TMB; ThermoFisher Scientific, N301) in each well and incubated at 25°C until sufficient blue color developed (time ranged from 2–15 min depending on the different capture antibodies used in the experiment). 100 µl of stop solution (4 M H2SO4) was added to each well. Absorbance values from each well were read at a Tecan plate reader at a wavelength of 450 nm and background measurement at 620 nm. Multiple readings were recorded for a single well and averaged. In each experiment, each sample was analyzed in technical duplicate/triplicate wells as indicated and average values from an independent experiment are presented (Figures 1E, 3G, SA-D and Table S2).

Row | Substance | Decrease in the pH (LysoSensor response, ΔpH) (SH-SY5Y cells) | Aβ levels in the isolated membrane fraction (16,100 g pellet) (primary cortical neurons) | Aβ levels in the 100,000 g pellet (insoluble cytosolic fraction) (primary cortical neurons; ELISA, compared to npAβ and p-Ser26Aβ) | Aβ levels in the 100,000 g supernatant (soluble cytosolic fraction) (primary cortical neurons; ELISA, compared to p-Ser26Aβ) | Aβ levels in the total cytosolic fraction (supernatant after 16,100 g spin) (primary cortical neurons; ELISA, followed by p-Ser8Aβ and npAβ)
1 | amyloid-β phosphorylated at serine residue 8 [p-Ser8Aβ] | did not show any change | highest levels | significantly higher | significantly lower | 
2 | amyloid-β phosphorylated at serine residue 26 [p-Ser26Aβ] | 0.17 ± 0.12 units | significantly lower |  |  | highest levels
3 | non-phosphorylated amyloid-β [npAβ, reference compound] | 0.13 ± 0.11 units | significantly lower |  |  | 
